According to patent publication US20130302825A1, “USES OF MACROPHAGE MANNOSE RECEPTOR TO SCREEN COMPOUNDS AND USES OF THESE COMPOUNDS” (Merck, priority 2010, published 2013):

Target: T1, mannose receptor (Rattus norvegicus, UniProt A0A8I5XVS2)
T1 construct: NR8383 rat alveolar macrophages were obtained from ATCC; host or cells: NR8383 rat alveolar macrophages
T1 sequence (A0A8I5XVS2 1-1431): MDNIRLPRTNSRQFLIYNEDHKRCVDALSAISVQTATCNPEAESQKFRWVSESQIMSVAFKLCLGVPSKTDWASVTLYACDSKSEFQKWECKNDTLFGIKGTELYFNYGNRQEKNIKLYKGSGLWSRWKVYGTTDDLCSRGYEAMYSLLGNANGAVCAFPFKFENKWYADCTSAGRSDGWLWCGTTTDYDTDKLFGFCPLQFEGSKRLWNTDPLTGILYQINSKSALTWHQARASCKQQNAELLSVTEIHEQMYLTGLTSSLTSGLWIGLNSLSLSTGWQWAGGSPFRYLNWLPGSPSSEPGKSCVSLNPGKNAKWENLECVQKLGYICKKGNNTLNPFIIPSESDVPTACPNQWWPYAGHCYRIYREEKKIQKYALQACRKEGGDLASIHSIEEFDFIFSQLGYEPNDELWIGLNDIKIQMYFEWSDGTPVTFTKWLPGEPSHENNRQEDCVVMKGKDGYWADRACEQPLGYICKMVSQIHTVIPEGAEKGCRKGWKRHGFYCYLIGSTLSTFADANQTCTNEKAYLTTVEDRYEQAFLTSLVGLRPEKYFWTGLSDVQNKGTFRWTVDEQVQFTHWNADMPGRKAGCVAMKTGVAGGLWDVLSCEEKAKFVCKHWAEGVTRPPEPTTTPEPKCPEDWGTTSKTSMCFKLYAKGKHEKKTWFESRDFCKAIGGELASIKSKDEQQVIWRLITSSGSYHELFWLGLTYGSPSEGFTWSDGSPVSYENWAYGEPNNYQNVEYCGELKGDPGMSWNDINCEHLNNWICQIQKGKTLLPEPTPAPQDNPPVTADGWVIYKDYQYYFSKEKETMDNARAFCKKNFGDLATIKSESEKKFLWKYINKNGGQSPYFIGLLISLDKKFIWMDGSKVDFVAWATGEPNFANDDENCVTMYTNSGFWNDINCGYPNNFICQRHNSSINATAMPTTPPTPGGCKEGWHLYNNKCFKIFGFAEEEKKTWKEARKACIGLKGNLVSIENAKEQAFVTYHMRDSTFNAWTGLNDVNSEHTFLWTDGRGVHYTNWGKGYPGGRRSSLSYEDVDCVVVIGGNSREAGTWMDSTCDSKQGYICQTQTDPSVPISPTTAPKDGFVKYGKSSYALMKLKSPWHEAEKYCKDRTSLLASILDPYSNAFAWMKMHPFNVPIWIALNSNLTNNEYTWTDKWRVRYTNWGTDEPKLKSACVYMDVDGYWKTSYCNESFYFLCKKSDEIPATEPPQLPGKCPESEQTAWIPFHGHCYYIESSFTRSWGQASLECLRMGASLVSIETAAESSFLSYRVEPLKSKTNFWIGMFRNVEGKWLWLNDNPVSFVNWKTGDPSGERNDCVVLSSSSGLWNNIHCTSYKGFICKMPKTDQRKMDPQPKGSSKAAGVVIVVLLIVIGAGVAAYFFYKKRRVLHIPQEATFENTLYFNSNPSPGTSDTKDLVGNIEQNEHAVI
Assay: Uptake of Alexa488-SI-0052 in NR8383 in the presence of competing sugars
Assay type: cell-based
Details: 250 nM Alexa488-SI-0052, varying sugar concentrations; FIG. 1b
Description: NR8383 rat alveolar macrophages were obtained from ATCC and cultured in gelatin coated flasks in F12K medium +15% heat inactivated FBS+antibiotics. For uptake experiments, NR8383 were seeded in gelatin coated 96 well plates and allowed to reach confluence. […] Each condition was carried out in triplicate. […] Cells were transferred to V-bottom 96 well plates and centrifuged (800 g, 7 min, 4C) to collect. Pellets were washed with cold 5 mM EDTA and again centrifuged. Cells were then resuspended in 1% paraformaldehyde in PBS and stored at 4C in the dark until analysis.
Uptake of Alexa488-SI-0052, as measured by cellular fluorescence, was assessed using flow cytometry (FACSCalibur). The geometric mean of fluorescence for 5000-10000 cells was measured for each sample. Mannose specific uptake was taken to be the difference between total uptake (without mannan) and the uptake in the presence of mannan (non-specific uptake).
The uptake of Alexa488-SI-0052 was measured, as described above, in the presence of various sugars known to have varying affinities for the mannose receptor. NR8383 were incubated with a constant concentration of Alexa488-SI-0052 (250 nM, chosen because this concentration lies on the concentration dependent portion of the Alexa488-SI-0052 uptake curve) and varying concentrations of α-methyl mannose (α-MM), glucose and galactose.

| Compound | Interference with Alexa488-SI-0052 uptake (rank order) |
| --- | --- |
| O=C[C@H](O)[C@@H](O)[C@@H](O)[C@H](O)CO [galactose] | then galactose |
| COC1O[C@H](CO)[C@@H](O)[C@H](O)[C@@H]1O (stereo partly drawn) [α-MM, α-methyl mannose] | interferes the most |
